Measured values from ChEMBL document CHEMBL5634175, “Genome-Driven Discovery of Hygrocins in Streptomyces rapamycinicus” (2024).

Legend:
Type in all cases: functional
[1] = test system: Staphylococcus aureus; experiment: Antibacterial activity against Staphylococcus aureus 8325 incubated for 12 hrs by broth microdilution method
[2] = test system: Pseudomonas aeruginosa; experiment: Antibacterial activity against Pseudomonas aeruginosa PAO1 incubated for 12 hrs by broth microdilution method
[3] = test system: Bacillus subtilis; experiment: Antibacterial activity against Bacillus subtilis incubated for 12 hrs by broth microdilution method
[4] = test system: Candida albicans; experiment: Antifungal activity against Candida albicans IBT 656 incubated for 24 hrs by broth microdilution method

Row | MIC [1] | MIC [2] | MIC [3] | MIC [4] | SMILES
1 | > 50 µg/mL | > 50 µg/mL | > 50 µg/mL | > 50 µg/mL | CC[C@@H](/C=C/[C@H](O)[C@H](C)OC(=O)/C(C)=C\C1=C2C(=CC(=O)c3cc(O)c(C)cc32)NC1=O)CCC(=O)O
2 | > 50 µg/mL | > 50 µg/mL | > 50 µg/mL | > 50 µg/mL | CC[C@@H](/C=C/[C@H](OC(=O)/C(C)=C\[C@H]1C(=O)NC2=CC(=O)c3cc(O)c(C)cc3[C@@]21O)[C@H](C)O)CCC(=O)O
3 | > 50 µg/mL | > 50 µg/mL | > 50 µg/mL | > 50 µg/mL | CC[C@H]1/C=C/[C@@H]([C@@H](C)O)OC(=O)/C(C)=C\CC(=O)Nc2cc(O)cc3c2O[C@@]2(CC1)CC(=O)[C@@H](C)[C@@H]3O2
4 | > 50 µg/mL | > 50 µg/mL | > 50 µg/mL | > 50 µg/mL | CC[C@@H](/C=C/[C@H](O)[C@H](C)OC(=O)/C(C)=C\[C@@H]1C(=O)NC2=CC(=O)c3cc(O)c(C)cc3[C@]21O)CCC(=O)O
5 | > 50 µg/mL | > 50 µg/mL | > 50 µg/mL | > 50 µg/mL | CC[C@H]1/C=C/[C@H](O)[C@@H](C)OC(=O)/C(C)=C\CC(=O)Nc2cc(O)cc3c2O[C@@]2(CC1)CC(=O)[C@H](C)[C@H]3O2
6 | > 50 µg/mL | > 50 µg/mL | > 50 µg/mL | > 50 µg/mL | CC[C@@H](/C=C/[C@H](OC(=O)/C(C)=C\C1=C2C(=CC(=O)c3cc(O)c(C)cc32)NC1=O)[C@H](C)O)CCC(=O)O
7 | > 50 µg/mL | > 50 µg/mL | > 50 µg/mL | > 50 µg/mL | CC[C@@H](/C=C/[C@H](OC(=O)/C(C)=C\[C@@H]1C(=O)NC2=CC(=O)c3cc(O)c(C)cc3[C@]21O)[C@H](C)O)CCC(=O)O
